Measurements from ChEMBL document CHEMBL4680162, “Synthesis and pharmacological evaluation of chlorin derivatives for photodynamic therapy of cholangiocarcinoma” (Eur J Med Chem, 2020).
Activity calls are given as the source filed them. The rule behind the calls is not given here.

Columns and labels:
[1] = Induction of apoptosis in human QBC939 cells assessed as viable cells at 2 uM by annexin V-FITC and propidium iodide staining based flow cytometric analysis (reference value: 99.99 %); type: functional; settings: read-out: Activity
[2] = Absorption property of the compound in DMF assessed as Q band log absorption coefficient by UV-visible spectrophotometric method; type: physicochemical
[3] = Drug uptake in mouse assessed as drug level in plasma at 1 mg/kg, iv measured upto 24 hrs by fluorometric method; type: ADME, organism-based; settings: in vivo
[4] = Phototoxicity in BALB/c nude mouse xenografted with QBC939 cells assessed as change in liver at 1 mg/kg, iv followed by laser light irradiation at 120 J/cm2 measured after 1 day of light irradiation by H and E staining based histological analysis; type: organism-based; settings: in vivo, 24 h
[5] = Drug localization in mitochondria of human QBC939 cells at 4 uM incubated for 4 hrs in dark by mito-tracker green based confocal microscopic method; type: ADME; settings: qbc939, 4 h
[6] = Absorption property of compound in poly-oxyethylene castor oil and PBS assessed as Q band maximum absorption wavelength by UV-visible spectrophotometric method; type: physicochemical; settings: buffer
[7] = Dark toxicity in human QBC939 cells assessed as reduction in cell viability incubated under dark for 24 hrs measured after 24 hrs by MTT assay; type: cell-based; settings: read-out: TC50
[8] = Absorption property of the compound in DMSO assessed as Q band log absorption coefficient by UV-visible spectrophotometric method; type: physicochemical
QBC939 [9] = experiment: Photodynamic antitumour activity against human QBC939 cells xenografted in BABL/c nude mouse assessed as increase in apoptotic cells at 1 mg/kg, iv measured after 1 day of light irradiation by TUNEL assay; type: functional, organism-based
[10] = Induction of apoptosis in human QBC939 cells assessed as viable cells at 2 uM in presence of 2J/cm2 light irradiation measured after 2 hrs by annexin V-FITC and propidium iodide staining based flow cytometric analysis (reference value: 99.6 %); type: functional; settings: QBC939, light or radiation study, read-out: Activity
[11] = Absorption property of compound in poly-oxyethylene castor oil and PBS assessed as Q band log absorption coefficient by UV-visible spectrophotometric method; type: physicochemical; settings: buffer
QBC939 [12] = experiment: Photodynamic antitumor activity against human QBC939 cells xenografted in BALB/c nude mouse assessed as morphological change in tumor tissue at 1 mg/kg, iv followed by laser light irradiation at 120 J/cm2 measured after 1 day of light irradiation by H and E staining based histological analysis; type: functional, organism-based
[13] = Drug uptake in human QBC939 cells at 4 uM by fluorescence spectrophotometer analysis; type: ADME, cell-based; settings: qbc939, 4 µM
[14] = Photodynamic antitumor activity against human QBC939 cells xenografted in BALB/c nude mouse assessed as tumor weight at 1 mg/kg, iv followed by laser light irradiation at 120 J/cm2 measured after 13 days; type: functional; settings: time 13 day
[15] = Emission property of compound in poly-oxyethylene castor oil and PBS assessed as Q band emission wavelength by […]; type: physicochemical; settings: buffer
[16] = Induction of apoptosis in human QBC939 cells assessed as early apoptotic cells at 2 uM in presence of 2J/cm2 light irradiation measured after 24 hrs by annexin V-FITC and propidium iodide staining based flow cytometric analysis (reference value: 0.01 %); type: functional
QBC939 [17] = experiment: Photodynamic antitumor activity against human QBC939 cells xenografted in BALB/c nude mouse assessed as increase in tumor tissue damage at 1 mg/kg, iv followed by laser light irradiation at 120 J/cm2 measured after 1 day of light irradiation by H and E staining based histological analysis; type: functional, organism-based
[18] = Drug localization in lysosome of human QBC939 cells at 4 uM incubated for 4 hrs in dark by lyso-tracker blue based confocal microscopic method; type: ADME, subcellular; settings: qbc939, 4 h
[19] = Induction of apoptosis in human QBC939 cells assessed as late apoptotic cells at 2 uM in presence of 2J/cm2 light irradiation measured after 24 hrs by annexin V-FITC and propidium iodide staining based flow cytometric analysis (reference value: 0.01 %); type: functional
[20] = Induction of apoptosis in human QBC939 cells assessed as early apoptotic cells at 2 uM in presence of 2J/cm2 light irradiation measured after 2 hrs by annexin V-FITC and propidium iodide staining based flow cytometric analysis (reference value: 0.01 %); type: functional
[21] = Phototoxicity against human QBC939 cells assessed as reduction in cell viability irradiated with 2 J/cm2 of 650 nanometer laser light preincubated for 24 hrs in dark and measured after 24 hrs by MTT assay; type: functional, cell-based; settings: QBC939, light or radiation study
[22] = Phototoxicity in ICR mouse assessed as neck skin weight at 1 mg/kg, iv followed by 10 mW/cm2 light irradiation for 10 mins at 1 day after drug challenge and measured after 1 day of light irradiation by H and E staining based microscopic analysis (reference value: 36.5 +/- 2.4 mg); type: organism-based; settings: in vivo, 48 h, time 2 day
[23] = Phototoxicity in ICR mouse assessed as ear weight at 1 mg/kg, iv followed by 10 mW/cm2 light irradiation for 10 mins at 1 day after drug challenge and measured after 1 day of light irradiation by H and E staining based microscopic analysis (reference value: 12.4 +/- 1.5 mg); type: organism-based; settings: in vivo, 48 h, time 2 day
[24] = Phototoxicity in BALB/c nude mouse xenografted with QBC939 cells assessed as change in spleen at 1 mg/kg, iv followed by laser light irradiation at 120 J/cm2 measured after 1 day of light irradiation by H and E staining based histological analysis; type: organism-based; settings: in vivo, 24 h
[25] = Phototoxicity in ICR mouse assessed as back skin weight at 1 mg/kg, iv followed by 10 mW/cm2 light irradiation for 10 mins at 1 day after drug challenge and measured after 1 day of light irradiation by H and E staining based microscopic analysis (reference value: 34.3 +/- 2.1 mg); type: organism-based; settings: in vivo, 48 h, time 2 day
[26] = Induction of apoptosis in human QBC939 cells assessed as necrotic cells at 2 uM in presence of 2J/cm2 light irradiation measured after 24 hrs by annexin V-FITC and propidium iodide staining based flow cytometric analysis (reference value: 0.02 %); type: functional
[27] = Induction of apoptosis in human QBC939 cells assessed as viable cells at 2 uM in presence of 2J/cm2 light irradiation measured after 24 hrs by annexin V-FITC and propidium iodide staining based flow cytometric analysis (reference value: 99.6 %); type: functional; settings: QBC939, light or radiation study, read-out: Activity
[28] = Phototoxicity in BALB/c nude mouse xenografted with QBC939 cells assessed as change in heart at 1 mg/kg, iv followed by laser light irradiation at 120 J/cm2 measured after 1 day of light irradiation by H and E staining based histological analysis; type: organism-based; settings: in vivo, 24 h
[29] = Drug localization in nucleus of human QBC939 cells at 4 uM incubated for 4 hrs in dark by Hoechst 33342 based confocal microscopic method; type: ADME, subcellular; settings: qbc939, 4 h
[30] = Phototoxicity in BALB/c nude mouse xenografted with QBC939 cells assessed as change in lung at 1 mg/kg, iv followed by laser light irradiation at 120 J/cm2 measured after 1 day of light irradiation by H and E staining based histological analysis; type: organism-based; settings: in vivo, 24 h
[31] = Induction of singlet oxygen generation in DMF solution irradiated with 650 nanometer laser light in every 1 min by ESR assay; type: functional

SMILES: COC(=O)C1(C(=O)O)C2c3nc(c(-c4ccccc4)c4ccc([nH]4)c(-c4ccccc4)c4nc(c(-c5ccccc5)c5ccc([nH]5)c3-c3ccccc3)C=C4)C21 (stereo unspecified)
- viability at 2 µM [1]: 94.3%
- Activity [2]: 3.02
- Drug uptake [3]: Active
- Activity [4]: Non-Toxic
- Drug uptake [5]: Active
- Activity [6]: 655 nm
- CC50 at 48 h [7]: > 8000 nM
- Activity [8]: 4.02
- Activity (QBC939 [9]): Active
- viability at 2 µM [10]: 51.3%
- Activity [11]: 4.2
- Activity (QBC939 [12]): Active
- Drug uptake [13]: Active
- Activity [14]: 10%
- Activity [15]: 654 nm
- Activity [16]: 20.99%
- Activity (QBC939 [17]): Active
- Drug uptake [18]: Active
- Activity [19]: 69.12%
- Activity [20]: 23.2%
- IC50 [21]: 1360 nM
- Activity [22]: 37.9 mg
- Activity [23]: 12.8 mg
- Activity [24]: Non-Toxic
- Activity [25]: 35.1 mg
- Activity [26]: 7.79%
- viability at 2 µM [27]: 2.1%
- Activity [28]: Non-Toxic
- Drug uptake [29]: Not Active
- Activity [30]: Non-Toxic
- Activity [31]: Active
